# According to patent US10906897B2, “Microbiocidal heterobicyclic derivatives” (priority 2015, dated 2021):
# Legend:
# [1] = test system: Botryotinia fuckeliana (Botrytis cinerea); experiment: Botryotinia fuckeliana (Botrytis cinerea) / liquid culture (Gray mould); type: cell-based; settings: growth inhibition photometrically 3-4 days after application, compared to untreated control
# [2] = test system: Glomerella lagenarium (Colletotrichum lagenarium); experiment: Glomerella lagenarium (Colletotrichum lagenarium) / liquid culture (Anthracnose); type: cell-based; settings: Colletotrichum orbiculare, growth inhibition photometrically 3-4 days after application, compared to untreated control
SMILES,inhibition of growth at 20 ppm [1] [%],melting point [°C],inhibition of growth at 20 ppm [2] [%]
"Cc1cccc2ncc(C3=NC(C)(C)C(C)(C)c4c(F)cccc43)n12 [Compound E-30, 5-fluoro-3,3,4,4-tetramethyl-1-(5-methylimidazo[1,2-a]pyridin-3-yl)isoquinoline]",≥ 80,139 to 140,≥ 80
Cc1cccn2ncc(C3=NC(C)(C)C(=O)c4c(F)cccc43)c12,,141 to 143,
"CC1(C)Cc2c(Br)cccc2C(c2cnn3ccccc23)=N1 [Compound E-60, 5-bromo-3,3-dimethyl-1-pyrazolo[1,5-a]pyridin-3-yl-4H-isoquinoline]",≥ 80,,
"CC1(C)N=C(c2cnc3cc(C#N)ccn23)c2cccc(F)c2C1(C)C [Compound E-46, 3-(5-fluoro-3,3,4,4-tetramethyl-1-isoquinolyl)imidazo[1,2-a]pyridine-7-carbonitrile]",≥ 80,193 to 194,≥ 80
CC1(C)Cc2ccccc2C(c2cnc3cc(I)ccn23)=N1,,190 to 193,
CC1(C)N=C(c2cnc3c(Br)cccn23)c2cccc(F)c2C1=O,,146 to 147,
"C#Cc1cccn2c(C3=NC(C)(C)C(C)(C)c4c(F)cccc43)cnc12 [Compound E-23, 1-(8-ethynylimidazo[1,2-a]pyridin-3-yl)-5-fluoro-3,3,4,4-tetramethyl-isoquinoline]",≥ 80,169 to 170,
CC1(C)N=C(c2cnc3c(F)cccn23)c2cccc(F)c2C1=O,,160 to 161,
"CC1(C)N=C(c2cnc3cc(O)ccn23)c2cccc(F)c2C1(C)C [Compound E-49, 3-(5-fluoro-3,3,4,4-tetramethyl-1-isoquinolyl)imidazo[1,2-a]pyridin-7-ol]",≥ 80,246 to 247,≥ 80
"CC1(C)Cc2c(Cl)cccc2C(c2cnc3ccccn23)=N1 [Compound E-3, 5-chloro-1-imidazo[1,2-a]pyridin-3-yl-3,3-dimethyl-4H-isoquinoline]",,,≥ 80
CC1(C)N=C(c2cnc3ccc(O)cn23)c2cccc(F)c2C1(C)C,,321 to 322,
"CC1(C)N=C(c2cnc3ccccn23)c2cc(F)ccc2C1(C)C [Compound E-2, 7-fluoro-1-imidazo[1,2-a]pyridin-3-yl-3,3,4,4-tetramethyl-isoquinoline]",,,≥ 80
Cc1ccc2c(C3=NC(C)(C)C(F)(F)c4ccccc43)cnn2c1C,,160 to 161,
CC1(C)N=C(c2cnc3c(F)cccn23)c2cccc(Cl)c2C1Br (stereo not drawn),,213 to 214,
"CC1(C)Cc2c(F)cccc2C(c2cnc3c(F)cccn23)=N1 [Compound E-10, 5-fluoro-1-(8-fluoroimidazo[1,2-a]pyridin-3-yl)-3,3-dimethyl-4H-isoquinoline]",≥ 80,,≥ 80
"CC1(C)N=C(c2cnc3c(O)cccn23)c2cccc(F)c2C1(C)C [Compound E-27, 3-(5-fluoro-3,3,4,4-tetramethyl-1-isoquinolyl)imidazo[1,2-a]pyridin-8-ol]",≥ 80,271 to 272,≥ 80
"CC1(C)N=C(c2cnc3c(F)cccn23)c2cccc(F)c2C1O (stereo not drawn) [Compound E-14, 5-fluoro-1-(8-fluoroimidazo[1,2-a]pyridin-3-yl)-3,3-dimethyl-4H-isoquinolin-4-ol]",,219,≥ 80
CC1(C)N=C(c2cnc3c(Br)cccn23)c2cccc(F)c2C1O (stereo not drawn),,204 to 205,

SMILES,inhibition of growth at 20 ppm [1] [%],melting point [°C],inhibition of growth at 20 ppm [2] [%]
"COc1ccn2c(C3=NC(C)(C)C(C)(C)c4c(F)cccc43)cnc2c1 [Compound E-48, 5-fluoro-1-(7-methoxyimidazo[1,2-a]pyridin-3-yl)-3,3,4,4-tetramethyl-isoquinoline]",≥ 80,139 to 140,≥ 80
"Cc1nn2ccccc2c1C1=NC(C)(C)C(C)(C)c2c(F)cccc21 [Compound E-62, 5-fluoro-3,3,4,4-tetramethyl-1-(2-methylpyrazolo[1,5-a]pyridin-3-yl)isoquinoline]",≥ 80,,≥ 80
"CC1(C)Cc2c(Cl)cccc2C(c2cnc3c(F)cccn23)=N1 [Compound E-11, 5-chloro-1-(8-fluoroimidazo[1,2-a]pyridin-3-yl)-3,3-dimethyl-4H-isoquinoline]",≥ 80,122 to 123,≥ 80
CC1(C)Cc2c(Cl)cccc2C(c2cnc3ccc(F)cn23)=N1,,142 to 143,
"CC1(C)N=C(c2cnc3c(F)cccn23)c2cccc(F)c2C1(F)F [Compound E-19, 4,4,5-trifluoro-1-(8-fluoroimidazo[1,2-a]pyridin-3-yl)-3,3-dimethyl-isoquinoline]",≥ 80,145 to 146,≥ 80
"CC1(C)N=C(c2cnc3c(OC(F)F)cccn23)c2cccc(F)c2C1(C)C [Compound E-7, 1-[8-(difluoromethoxy)imidazo [1,2-a]pyridin-3-yl]-5-fluoro-3,3,4,4-tetramethyl-isoquinoline]",≥ 80,121 to 122,≥ 80
CC1(C)N=C(c2cnc3ccc(F)cn23)c2cccc(F)c2C1(C)C,,200 to 202,
"Cc1cccn2ncc(C3=NC(C)(C)C(=O)c4ccccc43)c12 [Compound E-68, 3,3-dimethyl-1-(4-methylpyrazolo[1,5-a]pyridin-3-yl)isoquinolin-4-one]",≥ 80,140 to 141,
"Cc1nc2c(C)cccn2c1C1=NC(C)(C)C(C)(C)c2c(F)cccc21 [Compound E-40, 1-(2,8-dimethylimidazo[1,2-a]pyridin-3-yl)-5-fluoro-3,3,4,4-tetramethyl-isoquinoline]",≥ 80,,≥ 80
CC1(C)N=C(c2cnc3c(Br)cccn23)c2cccc(F)c2C1Br (stereo not drawn),,217 to 218,
"CC1(C)Cc2c(F)cccc2C(c2cnc3c(Br)cccn23)=N1 [Compound E-16, 1-(8-bromoimidazo[1,2-a]pyridin-3-yl)-5-fluoro-3,3-dimethyl-4H-isoquinoline]",,179 to 181,≥ 80
CC1(C)N=C(c2cnc3c(F)cccn23)c2cccc(F)c2C1Br (stereo not drawn),,211 to 212,
"Cc1cccn2ncc(C3=NC(C)(C)C(=O)c4cc(F)ccc43)c12 [Compound E-75, 6-fluoro-3,3-dimethyl-1-(4-methylpyrazolo[1,5-a]pyridin-3-yl)isoquinolin-4-one]",≥ 80,180 to 183,
CC1(C)N=C(c2cnc3c(Br)cccn23)c2ccccc2C1=O,,204 to 205,
CC1(C)N=C(c2cnc3c(Br)cccn23)c2ccccc2C1(F)F,,173,
"CSc1cccn2c(C3=NC(C)(C)Cc4c(F)cccc43)cnc12 [Compound E-17, 5-fluoro-3,3-dimethyl-1-(8-methylsulfanyl-imidazo[1,2-a]pyridin-3-yl)-4H-isoquinoline]",,119 to 120,≥ 80
CC1(C)N=C(c2cnn3cccc(Br)c23)c2ccccc2C1=O,,148 to 151,
